Data reported in patent US20240158448A1, “MULTIVALENT NANO-'SELF' PEPTIDES AND USES THEREOF” (THE TRUSTEES OF THE UNIVERSITY OF PENNSYLVANIA, priority 2021, published 2024).
Entries after “also recorded” stand apart in the source; their conditions may differ. Non-standard residues stand in square brackets, D forms with d. Primed or numbered codes have the meaning given here. No end group written: not given here. PEG5′ = linker of 5 PEG units between residues

Experiments:
[1] = tested on: human macrophages (opsonized K562 cancer cells); assay: Phagocytosis of opsonized K562 erythroleukemia cells by human macrophages; format: cell-based
Experimental: In vitro phagocytosis assay. Fresh human RBCs were washed twice with 50 mM EDTA (Thermo Fischer) in PBS (Gibco) then twice with 5% FBS in PBS. RBCs were opsonized with 20 μg/mL rabbit anti-human RBC antibody (Rockland) in 5% FBS for 1 hour at RT with shaking. For CD47 blocked RBCs, 5 μg/mL of mouse anti-human CD47 (B6H12; BD Biosciences) were added. Thereafter, RBCs were washed with PBS three times and stained with PKH26 dye (1:800 dilution in PBS; Sigma) for 1 hour at RT with shaking in the dark. RBCs were washed and resuspended in PBS.
THP-1 monocytes were PMA differentiated in RPMI for 48 hours. Macrophages were then washed with RPMI media three times. For SIRPα blocked THP-1 macrophages, 20 nM, 1 μM or 50 μM of the nano—Self peptides were incubated with the THP-1 macrophages for 1 hour at 37 ° C., 5% CO2 and 95% humidity. Those THP-Is were then washed with RPMI three times.
(§1) CO2 and 95% humidity. Macrophages were then washed with RPMI three times. Adherent and uninternalized RBCs were lysed with water for 30 seconds followed by immediate replacement with RPMI media. In order to distinguish remaining adherent RBCs from internalized RBCs, opsonized RBCs were stained with AlexaFluor 647 donkey anti-rabbit (binds to rabbit polyclonal opsonin on RBC; Invitrogen) IgG (1:1000) while unopsonized, CD47 blocked RBCs were stained with AlexaFluor 647 donkey anti-mouse (binds to mouse monoclonal anti-CD47 on RBCs; Invitrogen) IgG (1:1000) for 30 minutes. After washing, macrophages were fixed with 4% formaldehyde for 15 minutes at RT, washed with PBS, stained with 1 μg/mL Hoechst 33342, and then washed with PBS again. Fluorescence imaging was performed as described elsewhere herein and quantification was done using ImageJ. At least 200 cells were analyzed and experiments were repeated at least three times.
The anti-RBC successfully opsonized and triggered phagocytosis of K562 cells by macrophages (FIGS. 2A, 2F and 2E). […] Interaction of the nS peptides with K562 cells is likely minimal due to the relative lack of SIRPα expression. […] For both opsonized RBCs and opsonized K562s (FIGS. 2D, 2F), the hyperphagocytosis that is achieved with soluble F- and V-nS peptides matches the recently measured increases for disruption of both (i) the trans interactions between CD47 on a target and macrophage SIRPα and also, importantly, (ii) the cis interactions between CD47 and SIRPα on the same macrophage (FIG. 2G-left). Expression profiling of macrophages confirms these cells generally express CD47 at roughly similar levels to other cell types (FIG. 15). […] A preliminary conclusion is that nS-FF and the other substituted peptides, which were designed to bind SIRPα, inhibit both the cis and trans interactions between SIRPα and CD47 ([…]).

[2] = tested on: A549 (SIRPα positive) cells; assay: Confocal live staining with FAM-labeled peptides, A549 cells; format: binding, human; details: 100 uM and 1 μM FAM-labeled peptide
Experimental: (§2) SIRPα staining and confocal imaging. THP-1 monocytes were PMA-differentiated in RPMI 1640 for 24 hours. J774A.1, A549, and COS-1 cells were plated for 24 hours in media, respectively. Cells were washed with respective media prior to addition of fluorescent peptides. The peptides were left to incubate for 1 hour at 37 ° C., 5% CO2 and 95% humidity. For fixed cell staining, cells were incubated with 4% formaldehyde (Pierce) for 15 minutes prior to the addition of fluorescent peptides whereas for live cell staining, fixation was done after incubation with the FAM-labeled peptides. Nuclei were stained with 1 μg/mL Hoechst 33342 (Invitrogen). Cells were the washed PBS three times before analysis. Fluorescence imaging of fixed cells was performed using an Olympus IX71 with a digital EMCCD camera (Cascade 512B) and a 40×/0.6 NA objective. […] Quantification was done with ImageJ (NIH).
(§3) In order to visualize the uneven binding of the peptides to the surface of the macrophages, a live staining experiment of THP-1, J774A.1, and A549 cells, which all express SIRPα at different levels, was performed with FAM-labeled nS-wt and nS-X and analyzed by confocal microscopy (FIG. 11). […] Fluorescence of nS-X was consistently lower on THP-1 and J774A.1 macrophages relative to nS-wt. […]

[3] = tested on: COS-1 (SIRPα negative) cells; assay: Confocal live staining with FAM-labeled peptides, COS-1 cells; format: binding, monkey; details: FAM-labeled peptide
Experimental: as §2, §3

[4] = tested on: mouse J774A.1 macrophages; assay: In vitro phagocytosis assay: opsonized human RBCs engulfed by mouse J774A.1 macrophages; format: cell-based; details: saturating / 50 μM peptide
Experimental: as §1, with “In vitro phagocytosis assay. […] For CD47 blocked RBCs, 5 μg/mL of mouse anti-human CD47 (B6H12; BD Biosciences) were added. Thereafter, RBCs were washed with PBS three times and stained with PKH26 dye (1:800 dilution in PBS; Sigma) for 1 hour at RT with shaking in the dark. RBCs were washed and resuspended in PBS. J774A.1 macrophages were plated for 24 hours in RPMI. For SIRPα blocked J774A.1 macrophages, the same peptide blocking procedure as described elsewhere herein was used with the addition of a positive control using 5 μg/mL rat anti-mouse SIRPα ([…]; BD Biosciences). […] CO2” for “CO2”

Substance	increase of phagocytosis relative to opsonized and CD47 blocked K562 cells ([1]; saturating peptide)	macrophages engulfing opsonized K562 cells at saturation ([1]; saturation) [%]	binding to A549 cells [2]	binding to COS-1 cells [3]	effect on phagocytosis of opsonized RBCs (words) [4]
(VTELFREG-PEG5)2-K (VTELFREG[PEG5′]K[PEG5′]GERFLETV; not fully specified; also: bivalent lysine core) [nS-FF, bivalent nS-F linked through PEG5 linkers to a C-terminal Lys]	nearly doubled; also recorded: about two-fold	~40	–	–	–
VTELTREG [nS-wt, 8-amino acid wild type nano-Self peptide from the CD47 loop, C-terminal amide]	–	–	binding was observed at 100 uM on A549 cells all around the surface	primarily non-specific	matches anti-CD47 blockade effects
